# Species on record: Rattus norvegicus
# Test: DrugMatrix - Regimen: Daily Repeat
# Format: toxicity, organism-based, Sprague-Dawley
# Parameters: regimen Daily Repeat, gender Male, age 6-8 weeks
# Conditions: in vivo, po, route oral GAVAGE, vehicle 100 % WATER; for ABSOLUTE BASOPHIL / ABSOLUTE EOSINOPHIL / ABSOLUTE LYMPHOCYTE / ABSOLUTE MONOCYTE / ABSOLUTE SEGMENTED NEUTROPHIL / BASOPHIL / EOSINOPHIL / ERYTHROCYTE COUNT / HEMATOCRIT / HEMOGLOBIN / LEUKOCYTE COUNT / LYMPHOCYTE / MEAN CORPUSCULAR HEMOGLOBIN / MEAN CORPUSCULAR HEMOGLOBIN CONCENTRATION / MONOCYTE / NEUTROPHIL / NUCLEATED RED BLOOD CELLS / PLATELET COUNT: tissue Blood; for ALANINE AMINOTRANSFERASE / ALBUMIN / ALKALINE PHOSPHATASE / ASPARTATE AMINOTRANSFERASE / BLOOD UREA NITROGEN / CARBON DIOXIDE / CHLORIDE / CHOLESTEROL / CREATINE PHOSPHOKINASE / CREATININE / GLUCOSE / LACTATE DEHYDROGENASE / LIPASE / PHOSPHORUS / POTASSIUM / SODIUM / TOTAL BILIRUBIN / TOTAL PROTEIN / URIC ACID: tissue Plasma
# [1] = 0 mg/kg, 72 h, dose level Control, time 3 day
# [2] = 0 mg/kg, 120 h, dose level Control, time 5 day
# [3] = 50 mg/kg, 72 h, dose level Low, time 3 day
structure (smiles),measurement,setting,value
C[C@H](CS)C(=O)N1CCC[C@H]1C(=O)O [CAPTOPRIL],ABSOLUTE BASOPHIL,[1],0 CELLS/uL
same,ABSOLUTE EOSINOPHIL,[1],0 CELLS/uL
same,ABSOLUTE LYMPHOCYTE,[1],10386.33 CELLS/uL
same,ABSOLUTE MONOCYTE,[1],88.5 CELLS/uL
same,ABSOLUTE SEGMENTED NEUTROPHIL,[1],1008.5 CELLS/uL
same,BASOPHIL,[1],0%
same,EOSINOPHIL,[1],0%
same,ERYTHROCYTE COUNT,[1],5.16 x10E6/uL
same,HEMATOCRIT,[1],32.43%
same,HEMOGLOBIN,[1],12.98 G/DL
same,LEUKOCYTE COUNT,[1],11.48 x10E3/uL
same,LYMPHOCYTE,[1],92.33%
same,MEAN CORPUSCULAR HEMOGLOBIN,[1],25.23 pg
same,MEAN CORPUSCULAR HEMOGLOBIN CONCENTRATION,[1],40.08 G/DL
same,MONOCYTE,[1],0.67%
same,NEUTROPHIL,[1],7%
same,NUCLEATED RED BLOOD CELLS,[1],0 /100WBC
same,PLATELET COUNT,[1],1016.67 x10E3/uL
same,ALANINE AMINOTRANSFERASE,[1],62.17 u/L
same,ALBUMIN,[1],3.95 G/DL
same,ALKALINE PHOSPHATASE,[1],363.5 u/L
same,ASPARTATE AMINOTRANSFERASE,[1],118 u/L
same,BLOOD UREA NITROGEN,[1],14.5 mg/dL
same,CARBON DIOXIDE,[1],22.83 mmol/L
same,CHLORIDE,[1],100.67 MEQ/L
same,CHOLESTEROL,[1],66 mg/dL
same,CREATINE PHOSPHOKINASE,[1],1308.83 u/L
same,CREATININE,[1],0.22 mg/dL
same,GLUCOSE,[1],187.5 mg/dL
same,LACTATE DEHYDROGENASE,[1],380.17 u/L
same,LIPASE,[1],16.17 u/L
same,PHOSPHORUS,[1],14.27 mg/dL
same,POTASSIUM,[1],6.8 MEQ/L
same,SODIUM,[1],142.53 MEQ/L
same,TOTAL BILIRUBIN,[1],0.2 mg/dL
same,TOTAL PROTEIN,[1],5.68 G/DL
same,URIC ACID,[1],2.87 mg/dL
same,ABSOLUTE BASOPHIL,[2],0 CELLS/uL
same,ABSOLUTE EOSINOPHIL,[2],80 CELLS/uL
same,ABSOLUTE LYMPHOCYTE,[2],13301.33 CELLS/uL
same,ABSOLUTE MONOCYTE,[2],180.83 CELLS/uL
same,ABSOLUTE SEGMENTED NEUTROPHIL,[2],1187.83 CELLS/uL
same,BASOPHIL,[2],0%
same,EOSINOPHIL,[2],0.5%
same,ERYTHROCYTE COUNT,[2],5.54 x10E6/uL
same,HEMATOCRIT,[2],35.65%
same,HEMOGLOBIN,[2],14.22 G/DL
same,LEUKOCYTE COUNT,[2],14.75 x10E3/uL
same,LYMPHOCYTE,[2],90.67%
same,MEAN CORPUSCULAR HEMOGLOBIN,[2],25.65 pg
same,MEAN CORPUSCULAR HEMOGLOBIN CONCENTRATION,[2],39.88 G/DL
same,MONOCYTE,[2],1%
same,NEUTROPHIL,[2],7.83%
same,NUCLEATED RED BLOOD CELLS,[2],0.17 /100WBC
same,PLATELET COUNT,[2],1285.33 x10E3/uL
same,ALANINE AMINOTRANSFERASE,[2],51.67 u/L
same,ALBUMIN,[2],4.08 G/DL
same,ALKALINE PHOSPHATASE,[2],391.5 u/L
same,ASPARTATE AMINOTRANSFERASE,[2],99.5 u/L
same,BLOOD UREA NITROGEN,[2],15.5 mg/dL
same,CARBON DIOXIDE,[2],28.33 mmol/L
same,CHLORIDE,[2],101.83 MEQ/L
same,CHOLESTEROL,[2],67.83 mg/dL
same,CREATINE PHOSPHOKINASE,[2],771.33 u/L
same,CREATININE,[2],0.23 mg/dL
same,GLUCOSE,[2],156.5 mg/dL
same,LACTATE DEHYDROGENASE,[2],544.33 u/L
same,LIPASE,[2],10.17 u/L
same,PHOSPHORUS,[2],12.03 mg/dL
same,POTASSIUM,[2],6.81 MEQ/L
same,SODIUM,[2],144.13 MEQ/L
same,TOTAL BILIRUBIN,[2],0.22 mg/dL
same,TOTAL PROTEIN,[2],6 G/DL
same,URIC ACID,[2],2.18 mg/dL
same,ABSOLUTE BASOPHIL,[3],0 CELLS/uL
same,ABSOLUTE EOSINOPHIL,[3],0 CELLS/uL
same,ABSOLUTE LYMPHOCYTE,[3],12527.33 CELLS/uL
same,ABSOLUTE MONOCYTE,[3],193.67 CELLS/uL
same,ABSOLUTE SEGMENTED NEUTROPHIL,[3],645.67 CELLS/uL
same,BASOPHIL,[3],0%
same,EOSINOPHIL,[3],0%
same,ERYTHROCYTE COUNT,[3],5.11 x10E6/uL
same,HEMATOCRIT,[3],32.47%
same,HEMOGLOBIN,[3],12.77 G/DL
same,LEUKOCYTE COUNT,[3],13.37 x10E3/uL
same,LYMPHOCYTE,[3],93.67%
same,MEAN CORPUSCULAR HEMOGLOBIN,[3],25 pg
same,MEAN CORPUSCULAR HEMOGLOBIN CONCENTRATION,[3],39.33 G/DL
same,MONOCYTE,[3],1.33%
same,NEUTROPHIL,[3],5%
same,NUCLEATED RED BLOOD CELLS,[3],0 /100WBC
same,PLATELET COUNT,[3],1185.33 x10E3/uL
same,ALANINE AMINOTRANSFERASE,[3],55.33 u/L
same,ALBUMIN,[3],4.23 G/DL
same,ALKALINE PHOSPHATASE,[3],396.33 u/L
same,ASPARTATE AMINOTRANSFERASE,[3],89.33 u/L
same,BLOOD UREA NITROGEN,[3],15.33 mg/dL
same,CARBON DIOXIDE,[3],24.67 mmol/L
same,CHLORIDE,[3],99.67 MEQ/L
same,CHOLESTEROL,[3],77.67 mg/dL
same,CREATINE PHOSPHOKINASE,[3],344.67 u/L
same,CREATININE,[3],0.22 mg/dL
same,GLUCOSE,[3],154.67 mg/dL
same,LACTATE DEHYDROGENASE,[3],230.67 u/L
same,LIPASE,[3],11.67 u/L
same,PHOSPHORUS,[3],12.57 mg/dL
same,POTASSIUM,[3],6.98 MEQ/L
same,SODIUM,[3],141.83 MEQ/L
same,TOTAL BILIRUBIN,[3],0.2 mg/dL
same,TOTAL PROTEIN,[3],5.87 G/DL
